# Reference: patent US12410229B2, “PTH mimetic peptide based on protein domain reconstruction and application thereof” (priority 2018, dated 2025)
# Assays:
# [1] = tested on: Bone marrow cells from the bone marrow cavity of femur in 7-week-old mice; test: Continuous PTH mimetic peptide stimulation, osteoclast formation (TRAP); type: cell-based, mouse
# Method: Bone marrow cells from the bone marrow cavity of femur in 7-week-old mice were extracted and seeded in 24-well plates at a density of 1×10^5/well. The 48 h continuous PTH mimetic peptide stimulation experiment was carried out as described above. After 7 days, tartrate resistant acid phosphatase (TRAP) staining (bottom row of holes in FIG. 2A) and quantification were performed (FIG. 2D).
# (§1) Primary osteoblasts (two rows of the holes in A) of mouse skulls were continuously treated with PTH (1-34), MY-3 and MY-1 (within the 48-hour culture cycles, PTH peptide stayed in the culture medium at all times). After 2 weeks, alkaline phosphatase (ALP) staining (A) and quantification (B) wells were performed in the cell culture. After 4 Weeks, calcium nodule staining (A) and calcium ion quantification (C) were performed in culture wells. Bone marrow cells in the femoral shaft bone marrow cavity (lower hole A) received the same treatment with three peptides as described above. Two weeks later, tartrate resistant acid phosphatase (TRAP) staining (A) and quantification (D) were performed. […] The same experiment was repeated three times and same results were obtained. […], #P<0.05 vs PTH (1-34).
# [2] = tested on: Primary mouse skull osteoblasts; test: Realtime PCR gene expression after PTH peptide stimulation, osteoblasts; type: cell-based; details: intermittent stimulation
# Method: (§2) Primary mouse skull osteoblasts (FIGS. 3A and 3B) and mouse bone marrow cells (FIGS. 3C and 3D) were cultured in cell culture plates. When the cells completely cover the bottom of the culture well, changed to a medium containing 1% fetal bovine serum, added with different concentrations of PTH mimetic peptide (the concentration is the same as above). Cells receiving intermittent stimulation (FIG. 3A and FIG. 3C) were treated with PTH peptides for 4 hours, and normal medium for 44 hours. Such 48-hour cycle repeated three times.
# (§3) Cell RNA was extracted 4 hours after the last PTH peptide stimulation for Realtime PCR detection. Cells receiving continuous stimulation (FIG. 3B and FIG. 3D) were cultured in the medium with PTH peptides, and the culture medium containing peptides was changed 48 hours later. Repeated such cycle three times. After 48 hours of the last PTH peptide stimulation, cellular RNA was extracted for Realtime PCR detection. As shown in the figure, the average value and standard deviation of an independent experiment (triple holes) were obtained. The same experiment was repeated three times and same results were obtained. *P<0.05 vs control group (CON), #P<0.05 vs PTH (1-34).
# [3] = tested on: Primary osteoblasts of mouse skulls; test: Continuous PTH mimetic peptide stimulation, osteoblast differentiation (ALP, calcium nodules); type: cell-based
# Method: Osteoblasts were isolated from the skulls of newborn mice and cultured in vitro. The cell at density of 1×10^5/well was inoculated in the 24-well culture plate. After 3 days, the continuous PTH mimetic peptide stimulation experiment was started. The PTH mimetic peptide was added to the culture system (containing 10% serum+α-MEM medium) at the corresponding concentration. After 48 hours, when the medium is changed, the PTH mimetic peptide was added again, meaning the PTH mimetic peptide is always in the culture solution. Concentration: MY-1 peptide 10^−6 M, PTH (1-34) peptide 10^−8 M, MY-3 peptide 10^−8 M. Alkaline phosphatase staining was performed 2 weeks later, and calcium nodule staining was performed 4 weeks later (FIG. 2A, upper two rows of the holes). The expression of alkaline phosphatase and the concentration of calcium ion in each well were quantitatively detected (FIGS. 2B and 2C).
# as §1
# mouse bone marrow cells = test: Realtime PCR gene expression after PTH peptide stimulation, bone marrow cells; type: cell-based; details: continuous stimulation of bone marrow cells (FIG. 3D)
# Method: as §2, §3
# [4] = tested on: Bone marrow cells from the bone marrow cavity of 7-week-old mice; test: Intermittent (4 h/48 h) PTH mimetic peptide stimulation, osteoclast formation (TRAP); type: cell-based, mouse
# Method: Bone marrow cells from the bone marrow cavity of 7-week-old mice were extracted and cultured in 24-well plates at a density of 1×10^5/well. The 4 h/48 h intermittent PTH mimetic peptide stimulation experiment was carried out as described above. After 7 days, tartrate resistant acid phosphatase (TRAP) staining (bottom row of the holes in FIG. 1A) and quantification were performed (FIG. 1D).
# (§4) Primary osteoblasts (two rows of the holes in A) of mouse skulls were intermittently treated with PTH (1-34), MY-3 and MY-1. (within 48 hours, PTH peptide was added to the medium for 4 hours, removed, and cultured in the ordinary medium for 44 hours, then started all over again). At 2 weeks, alkaline phosphatase (ALP) staining (A) and quantification (B) wells were performed in the cell culture. 4 Weekly, calcium nodule staining (A) and calcium ion quantification (C) were performed in culture wells. Bone marrow cells in the femoral shaft bone marrow cavity (lower hole A) received the same treatment with three peptides mentioned above. Two weeks later, tartrate resistant acid phosphatase (TRAP) staining (A) and quantification (D) were performed. […] The same experiment was repeated three times, and same results were obtained. *P<0.05 vs control group (CON), #P<0.05 vs PTH (1-34).
# C57BL female mice = test: Ovariectomy osteoporosis model, tibia histology (paraffin section); type: in vivo, mouse; details: OVX mice, 2 and 4 weeks, compared with the control group; MY-1 400, PTH (1-34) and MY-3 40 μg/kg/day
# Method: An osteoporosis model was constructed by removing the ovaries of 7-week-old C57BL female mice. Mice were subcutaneously injected with PTH (3-34) (400 μg/kg/day), MY-1 peptide (400 μg/kg/day), PTH (1-34) (40 μg/kg/day) and MY-3 peptide (40 μg/kg/day) daily (5 days a week), respectively. Mice were sacrificed at 2 and 4 weeks and their tibias were separated, then the cancellous bone mass (BV/TV) and bone mineral density (BMD) of the tibias were measured by micro-CT (FIG. 4).
# MY-3 has a stronger anti-bone loss effect than PTH (1-34)-through histological studies. The preparation of the osteoporosis animal model and the administration method of the PTH mimetic peptide was the same as in Example 4. After 2 and 4 weeks, the tibias of experimental mice were removed, decalcified, and prepared for paraffin section. At last, the osteoclast was stained.
# [5] = clinical applications, in general; cited from earlier work
# [6] = tested on: Primary osteoblasts of mouse skulls; test: Intermittent (4 h/48 h) PTH mimetic peptide stimulation, osteoblast differentiation (ALP, calcium nodules); type: cell-based
# Method: Osteoblasts were isolated from the skulls of newborn mice and cultured in vitro. The cell at density of 1×10^5/well was inoculated in a 24-well culture plate. After 3 days, a 4 h/48 h intermittent PTH mimetic peptide stimulation experiment was started, which the PTH mimetic peptide was added to the culture system at the corresponding concentration (containing 10% serum+α-MEM Culture medium). After 4 hours, the culture solution was aspirated, the adherent cells were gently washed once with α-MEM medium, then 10% serum+α-MEM medium was added and continued culturing for 44 hours. Repeated this cycle. Concentration: MY-1 peptide 10^−6 M, PTH (1-34) peptide 10^−8 M, MY-3 peptide 10^−8 M.
# Alkaline phosphatase staining was performed after 2 weeks, and calcium nodule staining was performed after 4 weeks (FIG. 1A, upper two rows of the holes). Alkaline phosphatase expression and calcium ion concentration of each well were quantitative detected (FIGS. 1B and 1C).
# as §4
structure (smiles),measurement,setting,value
"CC[C@H](C)[C@H](NC(=O)[C@H](CCC(=O)O)NC(=O)[C@H](CO)NC(=O)[C@@H](NC(=O)[C@@H](N)CO)C(C)C)C(=O)N[C@@H](CCC(N)=O)C(=O)N[C@@H](CC(C)C)C(=O)N[C@@H](CCSC)C(=O)N[C@@H](Cc1cnc[nH]1)C(=O)N[C@@H](CC(N)=O)C(=O)N[C@@H](CC(C)C)C(=O)NCC(=O)N[C@@H](CCCCN)C(=O)N[C@@H](Cc1cnc[nH]1)C(=O)N[C@@H](CC(C)C)C(=O)N[C@@H](CC(N)=O)C(=O)N[C@@H](CO)C(=O)N[C@@H](CCSC)C(=O)N[C@@H](CCC(=O)O)C(=O)N[C@@H](CCCN=C(N)N)C(=O)N[C@H](C(=O)N[C@@H](CCC(=O)O)C(=O)N[C@@H](Cc1c[nH]c2ccccc12)C(=O)N[C@@H](CC(C)C)C(=O)N[C@@H](CCCN=C(N)N)C(=O)N[C@@H](CCCCN)C(=O)N[C@@H](CCCCN)C(=O)N[C@@H](CC(C)C)C(=O)N[C@@H](CCC(N)=O)C(=O)N[C@@H](CC(=O)O)C(=O)N[C@H](C(=O)N[C@@H](Cc1cnc[nH]1)C(=O)N[C@@H](CC(N)=O)C(=O)N[C@@H](Cc1ccccc1)C(=O)O)C(C)C)C(C)C [PTH (1-34), Teriparatide, reference compound]",osteoclast formation (in words),[1]; TRAP staining,the same effect on promoting osteoclast formation
same,TRAP,"[1]; after 7 days, MY-1 10^−6 M, PTH (1-34) 10^−8 M, MY-3 10^−8 M, mean ± SD",11.80 ± 1.99 U/g protein
same,expression of osteogenic marker gene ALP and OC (in words),[2],promote the expression of osteogenic marker gene ALP and OC
same,osteogenic differentiation of osteoblasts (in words),[3],inhibit the differentiation of osteoblasts
same,ALP,"[3]; 2 weeks, MY-1 10^−6 M, PTH (1-34) 10^−8 M, MY-3 10^−8 M, mean ± SD",1.02 ± 0.28 U/g protein
same,Calcium,"[3]; 4 weeks, MY-1 10^−6 M, PTH (1-34) 10^−8 M, MY-3 10^−8 M, mean ± SD",0.12 ± 0.03 mmole/g protein
same,RANKL expression (in words),mouse bone marrow cells,significantly promoted RANKL expression
same,expression of ALP and OC (in words),mouse bone marrow cells,inhibited the expression of ALP and OC
same,TRAP,"[4]; intermittent 4 h/48 h stimulation, after 7 days, MY-1 10^−6 M, PTH (1-34) 10^−8 M, MY-3 10^−8 M, mean ± SD",9.61 ± 1.78 U/g protein
same,osteoclast formation (in words),"[4]; intermittent stimulation, TRAP staining",the same effect of promoting osteoclast formation
same,number of trabecular bones (in words),C57BL female mice,increased
same,reduction of the incidence of vertebral fractures,[5],about 76%
same,ALP,"[6]; intermittent 4 h/48 h stimulation, 2 weeks, MY-1 10^−6 M, PTH (1-34) 10^−8 M, MY-3 10^−8 M, mean ± SD",4.91 ± 0.55 U/g protein
same,Calcium,"[6]; intermittent 4 h/48 h stimulation, 4 weeks, MY-1 10^−6 M, PTH (1-34) 10^−8 M, MY-3 10^−8 M, mean ± SD",0.49 ± .06 mmole/g protein
same,osteogenic differentiation of osteoblasts (in words),[6]; intermittent stimulation,can promote osteogenic differentiation of osteoblasts
